Consider 76 compounds from PMC12040169 (PLOS Biology, 2025).

SMILES strings stand for the structures.

One data set can be described thus: in vitro. The note with it: human, hela cells, % viability.
By viability is commonly meant a read-out of living cells in per cent, often relative to untreated cells. For `COc1cccc(CN2CCN(C(=O)c3ccco3)CC2)c1OC` [CBK074380], the viability at 28.5 h, 10 µM is 87.4%.
`Cc1cc(Cl)ccc1OCC(O)CN1CCN(Cc2ccc3c(c2)OCO3)CC1` (stereo not shown) [CBK074383]: the viability at 28.5 h, 10 µM was found to be 92.3%.
On the same count and under the same terms, the result for `COc1ccc(CCNc2ncnc3sc4c(c23)CCCCC4)cc1OC` [CBK074384] reads 89.9%; that for `O=C(CN1CCN(Cc2ccc3c(c2)OCO3)CC1)Nc1ccc(SC(F)(F)F)cc1` [CBK074385], 108%; that for `COc1cc(CNc2ccc(N3CCOCC3)c(Cl)c2)ccc1OCc1ccccc1F` [CBK074392], 93.6%.
On the same count and under the same terms, the result for `N#Cc1c(Nc2cccc(C(F)(F)F)c2)sc(C(=O)c2ccc3c(c2)OCO3)c1N` [CBK074399] reads 89.2%.
Same read-out and setting: for `O=C1CC(N2CCN(Cc3ccc4c(c3)OCO4)CC2)C(=O)N1c1ccc(Cl)cc1` (stereo not shown) [CBK074402] the value was 103%; for `Cc1ccc(NC(=O)CN2CCN(Cc3ccc4c(c3)OCO4)CC2)cc1` [CBK074403], 102%; for `O=C1c2cccc3cccc(c23)C(=O)N1CC1CCN(CC(O)COCc2ccccc2)CC1` (stereo not shown) [CBK074407C], 84.4%.
In the case of `COc1ccc(CN2CCN(C(=O)c3cccs3)CC2)cc1OC` [CBK074410], the viability at 28.5 h, 10 µM was found to be 104%.
With `COc1ccccc1OCc1ccc(C(=O)N2CCN(c3cccc(C(F)(F)F)c3)CC2)o1` [CBK074417], the viability at 28.5 h, 10 µM came out at 62.7%.
Same read-out and setting: the result for `O=C(CCN1C(=O)c2cccc3cccc(c23)C1=O)N1CCN(Cc2ccc3c(c2)OCO3)CC1` [CBK074420] reads 96.2%; that for `COc1cccc(CNc2cccc(C(=O)O)c2)c1OCc1ccc(Cl)cc1Cl` [CBK074424], 91.3%; that for `COc1ccc(C(=O)c2sc3nc(C)c(C)c(C)c3c2N)cc1OC` [CBK074427], 72.7%.
As to `O=C(c1sc2cc(Cl)ccc2c1Cl)N1CCN(Cc2ccc3c(c2)OCO3)CC1` [CBK074431], the viability at 28.5 h, 10 µM was 101%.
Still for that read-out and setting: for `COc1ccc(CCNc2oc(COc3ccccc3)nc2C#N)cc1` [CBK074469] the value was 90.2%.
On the same count and under the same terms, for `Nc1nc(-c2ccccc2)nn1C(=O)CCc1ccccc1` [CBK074471] the value was 95.9%.
Turning to `CCOc1cccc(CNc2ccc(O)cc2)c1OCc1ccccc1Cl` [CBK074473], the viability at 28.5 h, 10 µM came to 87.7%.
Still for that read-out and setting: for `CCOC(=O)COc1ccc(S(=O)(=O)N2CCN(Cc3ccc4c(c3)OCO4)CC2)cc1` [CBK074492] the value was 101%.
Same read-out and setting: for `O=C(CN1CCN(C/C=C/c2ccccc2)CC1)Nc1ccc(C2CCCCC2)cc1` [CBK074497] the value was 112%.
On the same count and under the same terms, the result for `COc1cc(CN2CCN(S(=O)(=O)c3ccc(Cl)cc3)CC2)cc(OC)c1OC` [CBK074499] reads 91.3%; that for `CCOc1cccc(N2C(=O)c3cc(Br)ccc3NC2c2ccc(OC)c(OC)c2)c1` (stereo not shown) [CBK074502], 88.4%; that for `COc1ccc(S(=O)(=O)N2CCN(Cc3ccc4c(c3)OCO4)CC2)c2ccccc12` [CBK074521], 96.4%.
As for `COc1ccc(-n2c(CNCc3ccc4c(c3)OCO4)nc3ccccc3c2=O)cc1` [CBK074522], the viability at 28.5 h, 10 µM amounted to 102%.
On the same count and under the same terms, for `Nc1nc(NCc2ccccc2)nc(-c2cc(Cl)ccc2O)n1` [CBK074526] the value was 102%; for `COc1cccc(CN2CCN(C(=O)c3cccc(F)c3)CC2)c1OC` [CBK074527], 85.1%; for `COc1cc(CN2CCN(C(=O)c3cccc(Cl)c3)CC2)cc(OC)c1OC` [CBK074530], 97.1%.
As to `COc1cccc(CNc2ccc(N3CCCCC3)cc2)c1OCc1cccs1` [CBK074531], the viability at 28.5 h, 10 µM turned out to be 96.5%.
`COc1cc(-c2nc(S(=O)(=O)c3ccccc3)c(N3CCOCC3)o2)cc(OC)c1OC` [CBK074539]: the viability at 28.5 h, 10 µM turned out to be 90.1%.
On the same count and under the same terms, the result for `O=C1CC(N2CCN(Cc3ccc4c(c3)OCO4)CC2)C(=O)N1c1ccc(Br)cc1` (stereo not shown) [CBK074544] reads 89.9%; that for `CCS(=O)(=O)N1CCN(Cc2ccc3c(c2)OCO3)CC1` [CBK074545], 92.2%; that for `O=C(NCc1ccccc1)c1ccc(NCc2ccccc2)c([N+](=O)[O-])c1` [CBK074547], 92.9%.
Same read-out and setting: the result for `Nc1nc(NCCc2ccccc2)nc(-c2cc(Cl)ccc2O)n1` [CBK074551] reads 91.8%.
The same measure, in the same setting: for `CCOC(=O)C1CCCN(Cc2ccc3c(c2)OCO3)C1` (stereo not shown) [CBK074569] the value was 97.7%; for `CS(=O)(=O)N(CC(=O)N1CCN(Cc2ccc3c(c2)OCO3)CC1)c1cccc(F)c1` [CBK074572], 102%; for `C=CCOc1c(Br)cc(CNc2cccc(C(=O)O)c2)cc1OC` [CBK074581], 97.3%.
Take `COc1cc(CNc2ccc(N3CCCCC3)cc2)cc(Cl)c1OCc1cccs1` [CBK074586]: the viability at 28.5 h, 10 µM was 101%.
The same measure, in the same setting: for `COc1ccc(-c2cc(-c3c(O)ccc4c(C)cc(=O)oc34)nc(N)n2)cc1OC` [CBK074619] the value was 85%; for `COc1ccc(C(=O)CN2CCN(CCN3C(=O)c4cccc5cccc(c45)C3=O)CC2)cc1` [CBK074628], 75.7%; for `O=C(CN1CCCN(c2ncc(C(F)(F)F)cc2Cl)CC1)Nc1c(F)cccc1F` [CBK074636], 92.5%.
Still for that read-out and setting: for `OC(CNCCNc1nccc(C(F)(F)F)n1)Cn1ccc2ccccc21` (stereo not shown) [CBK074642] the value was 106%; for `OC(COc1ccc2c(c1)OCO2)CN1CCCN(c2nc3ccc(Cl)cc3s2)CC1` (stereo not shown) [CBK074646], 102%.
Still for that read-out and setting: the result for `OC(CSc1ccccc1)CN1CCC(Nc2nccc(C(F)(F)F)n2)CC1` (stereo not shown) [CBK074648] reads 94.5%.
With `OC(CNCc1ccc2c(c1)OCO2)COc1ccc(Cl)c(Cl)c1` (stereo not shown) [CBK074649], the viability at 28.5 h, 10 µM was found to be 89.3%.
On the same count and under the same terms, for `O=S(=O)(NCCCN1CCN(Cc2ccccc2)CC1)c1cccc(Cl)c1Cl` [CBK074655] the value was 114%; for `COc1ccc(CCNc2ccc(C(F)(F)F)cc2[N+](=O)[O-])cc1OC` [CBK074656], 87.4%.
On the same count and under the same terms, the result for `OC(CSc1ccccc1)CN1CCN(c2nc(-c3ccccc3)ns2)CC1` (stereo not shown) [CBK074677C] reads 110%; that for `O=C(CN1CCN(c2ccc(C(F)(F)F)cn2)CC1)Nc1ccc2c(c1)OCO2` [CBK074680], 102%; that for `OC(CNCc1ccc2c(c1)OCO2)CSc1ccccc1` (stereo not shown) [CBK074684], 101%.
Still for that read-out and setting: for `Cc1ccc(OCC(O)CN2CCN(c3nc(-c4ccccc4)ns3)CC2)c([N+](=O)[O-])c1` (stereo not shown) [CBK074696] the value was 95.3%.
In the case of `CC(C(=O)c1ccc(-c2ccccc2F)cc1)N1CCN(c2ccc(C#N)cc2)CC1` (stereo not shown) [CBK074706], the viability at 28.5 h, 10 µM came to 92%.
Same read-out and setting: for `OC(CN1CCN(c2ccc(C(F)(F)F)cn2)CC1)c1ccc2c(c1)OCCO2` (stereo not shown) [CBK074707] the value was 104%; for `Cc1ccc(Oc2ncccc2NC(=O)CN2CCC(NC(=O)c3ccccc3)CC2)c2c1CCC2` [CBK074715], 112%.
The same measure, in the same setting: for `O=C(NC1CCN(Cc2c(F)cccc2Cl)CC1)C1CCN(C(=O)OCc2ccccc2)CC1` [CBK074720] the value was 108%; for `O=C(CN1CCN(c2nc3cc(Cl)ccc3s2)CC1)c1ccc2c(c1)OCCCO2` [CBK074737], 96.6%; for `O=S(=O)(c1cc(Cl)sc1Cl)N1CCN(Cc2ccc3c(c2)OCO3)CC1` [CBK074743], 92.6%.
Still for that read-out and setting: the result for `O=S(=O)(c1ccc(F)cc1F)N1CCN(Cc2ccc3c(c2)OCO3)CC1` [CBK074744] reads 91.7%; that for `O=C(Nc1cccc2ccccc12)N1CCN(Cc2ccc3c(c2)OCO3)CC1` [CBK074747], 89%.
As to `O=C(O)c1ccccc1C(=O)N1CCN(Cc2ccc3c(c2)OCO3)CC1` [CBK074751], the viability at 28.5 h, 10 µM is 97.9%.
Still for that read-out and setting: for `O=C(Nc1ccc(OC(F)(F)F)cc1)N1CCN(Cc2ccc3c(c2)OCO3)CC1` [CBK074754] the value was 99.5%.
Take `O=C(c1cc(C(F)(F)F)cc(C(F)(F)F)c1)N1CCN(Cc2ccc3c(c2)OCO3)CC1` [CBK074756]: the viability at 28.5 h, 10 µM came to 98.2%.
Consider `OC(CN1CCN(Cc2ccc3c(c2)OCO3)CC1)c1ccccc1` (stereo not shown) [CBK074759], for which the viability at 28.5 h, 10 µM was found to be 82.8%.
Same read-out and setting: the result for `COc1cc(OCc2ccccc2)ccc1CN1CCN(Cc2ccc3c(c2)OCO3)CC1` [CBK074768] reads 97.9%.
Same read-out and setting: for `O=C(O)CC(CC(=O)N1CCN(Cc2ccc3c(c2)OCO3)CC1)c1ccccc1` (stereo not shown) [CBK074769] the value was 96%; for `O=C(CNC1CCN(Cc2ccccc2)CC1)Nc1ccc(Cl)cc1C(=O)c1ccccc1Cl` [CBK074770], 107%.
Same read-out and setting: for `c1ccc(CN2CCN(Cc3c[nH]c(-c4ccccc4)n3)CC2)cc1` [CBK074775] the value was 84.6%; for `O=C(CN1CCN(C(=O)C2COc3ccccc3O2)CC1)Nc1ccc2c(c1)OCCO2` (stereo not shown) [CBK074777], 111%; for `O=C(CN1CCN(Cc2ccccc2)CC1)Nc1ccc(C(F)(F)F)cc1Cl` [CBK074781], 103%.
With `O=C(CN1CCN(Cc2ccccc2)CC1)Nc1ccccc1Oc1ccccc1` [CBK074782], the viability at 28.5 h, 10 µM was 90.2%.
As to `O=C(CCN1CCN(C(c2ccccc2)c2ccccc2)CC1)c1ccccc1` [CBK074788], the viability at 28.5 h, 10 µM is 111%.
Same read-out and setting: for `O=C(Nc1ccc(OCc2ccccc2)cc1)OCC1CN(Cc2ccccc2)CCO1` (stereo not shown) [CBK074792] the value was 102%; for `O=S(=O)(CCN1CCN(Cc2ccccc2)CC1)c1ccc(F)cc1` [CBK074809], 108%.
The same measure, in the same setting: the result for `O=C1c2ccccc2C(=O)N1CCN1CCN(Cc2ccccc2)CC1` [CBK074813] reads 110%.
Still for that read-out and setting: for `COc1ccc(CCNc2ccccc2[N+](=O)[O-])cc1OC` [CBK074819] the value was 104%.
With `Nc1ccccc1SC(CC(=O)c1ccccc1)c1ccc2c(c1)OCO2` (stereo not shown) [CBK074823], the viability at 28.5 h, 10 µM stood at 80.2%.

Staying with this data set, now noted: human, hela cells, % viability, bulk resorufin, single well.
Consider `COc1ccc(CCNCc2ccc3c(c2)OCO3)cc1` [CBK074488], for which the viability at 28.5 h, 10 µM was 95.7%.
